Results published in US20260022142A1, “MACROCYCLIC IMMUNOMODULATORS” (Bristol-Myers Squibb Company, priority 2022, published 2026).
pIC50: −log10 of the molar value. Bridge positions count the residues as written; N and C are the ends. Square brackets hold non-standard residues; d marks the D form. Peptide text beside a SMILES is read from it. * marks the point of attachment. Phe(4-COOH) = N[C@@H](Cc1ccc(C(=O)O)cc1)C(=O)O; Bip = N[C@@H](Cc1ccc(-c2ccccc2)cc1)C(=O)O; Phe(3-Me) = Cc1cccc(C[C@H](N)C(=O)O)c1; Cha = N[C@@H](CC1CCCCC1)C(=O)O; Carboxymethyl = O=C(O)C*; Orn = NCCC[C@H](N)C(=O)O; Aun = NCCCCCCCCCCC(=O)O; Dab = NCC[C@H](N)C(=O)O; Dap = NC[C@H](N)C(=O)O; AEEA = NCCOCCOCC(=O)O

Molecular target: T1, PD-1/PD-L1 interaction (PE-labeled human PD-L1-Ig binding to Jurkat cell line over-expressing human PD-1) (Homo sapiens, UniProt Q15116)
T1 construct: expressed in transfected cells; host or cells: Jurkat
T1 sequence (Q15116 25-288): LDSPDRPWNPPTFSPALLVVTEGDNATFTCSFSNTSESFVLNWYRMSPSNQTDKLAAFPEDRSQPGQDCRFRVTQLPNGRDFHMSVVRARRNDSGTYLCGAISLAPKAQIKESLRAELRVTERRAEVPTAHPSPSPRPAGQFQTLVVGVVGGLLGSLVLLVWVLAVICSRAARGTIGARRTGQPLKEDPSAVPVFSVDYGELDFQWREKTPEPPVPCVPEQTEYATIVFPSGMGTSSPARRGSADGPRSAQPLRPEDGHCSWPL
Experiment: Jurkat-PD-1 Cell Binding High-Content Screening Assay (CBA)
Type: cell-based
Conditions: Jurkat cell line over-expressing human PD-1; PE-labeled PD-L1-Ig 20 nM final; read-out: Jurkat hPD1-PDL1 IC50
Procedure, shortened: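 Jurkat cells stably over-expressing human PD-1 were seeded in DMEM with 10% fetal calf serum and pre-incubated with compound for 2 h at 37° C. PE-labeled human PD-L1-Ig was then added at 20 nM final for 1 hour, after which cells were fixed with paraformaldehyde, Hoechst-stained and imaged by high-content microscopy.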

| pIC50 | Structure (SMILES) |
| --- | --- |
| 6.56 | CC(C)C[C@H]1NC(=O)[C@H](CCCN)NC(=O)[C@H](Cc2ccc(O)cc2)NC(=O)[C@H](Cc2ccc(-c3ccccc3)cc2)NC(=O)[C@H](Cc2ccc(O)cc2)NC(=O)[C@H](Cc2c[nH]c3ccccc23)NC(=O)[C@H](CC(=O)O)NC(=O)[C@H](Cc2ccc(OCC(=O)O)cc2)NC(=O)[C@H](CN)NC(=O)CSC[C@@H](C(=O)NCCOCCOCC(=O)NCCCCCCCCCCC(=O)O)NC(=O)[C@H](CCCCN)NC(=O)[C@H](Cc2ccc(O)cc2)NC(=O)[C@H](CC2CCCCC2)NC(=O)[C@H](CCN)NC1=O [Compound 2517] ({CH2CO}-[Dap]Y(Carboxymethyl)DWY[Bip]Y[Orn][dL][Dab][Cha]YKC[AEEA][Aun]-OH; thioether N-14) |
| 6.68 | Cc1cccc(C[C@@H]2NC(=O)[C@H](CC(=O)O)NC(=O)[C@H](Cc3ccc(OCC(=O)O)cc3)NC(=O)[C@H](CN)NC(=O)CSC[C@@H](C(=O)NCCOCCOCC(=O)NCCCCCCCCCCC(=O)O)NC(=O)[C@H](CN)NC(=O)[C@H](Cc3ccc(O)cc3)NC(=O)[C@H](CC3CCCCC3)NC(=O)[C@H](CCN)NC(=O)[C@@H](CC(C)C)NC(=O)[C@H](CCCN)NC(=O)[C@H](Cc3ccc(O)cc3)NC(=O)[C@H](Cc3ccc(-c4ccccc4)cc3)NC(=O)[C@H](Cc3ccc(O)cc3)NC2=O)c1 [Compound 2518] ({CH2CO}-[Dap]Y(Carboxymethyl)D[Phe(3-Me)]Y[Bip]Y[Orn][dL][Dab][Cha]Y[Dap]C[AEEA][Aun]-OH; thioether N-14) |
| 6.82 | Cc1cccc(C[C@@H]2NC(=O)[C@H](CC(=O)O)NC(=O)[C@H](Cc3ccc(OCC(=O)O)cc3)NC(=O)[C@H](CN)NC(=O)CSC[C@@H](C(=O)NCCOCCOCC(=O)NCCCCCCCCCCC(=O)O)NC(=O)[C@H](CCCN)NC(=O)[C@H](Cc3ccc(O)cc3)NC(=O)[C@H](CC3CCCCC3)NC(=O)[C@H](CCN)NC(=O)[C@@H](CC(C)C)NC(=O)[C@H](CCCN)NC(=O)[C@H](Cc3ccc(O)cc3)NC(=O)[C@H](Cc3ccc(-c4ccccc4)cc3)NC(=O)[C@H](Cc3ccc(O)cc3)NC2=O)c1 [Compound 2519] ({CH2CO}-[Dap]Y(Carboxymethyl)D[Phe(3-Me)]Y[Bip]Y[Orn][dL][Dab][Cha]Y[Orn]C[AEEA][Aun]-OH; thioether N-14) |
| 6.63 | Cc1cccc(C[C@@H]2NC(=O)[C@H](CC(=O)O)NC(=O)[C@H](Cc3ccc(OCC(=O)O)cc3)NC(=O)[C@H](CN)NC(=O)CSC[C@@H](C(=O)NCCOCCOCC(=O)NCCCCCCCCCCC(=O)O)NC(=O)[C@H](CCCNC(=N)N)NC(=O)[C@H](Cc3ccc(O)cc3)NC(=O)[C@H](CC3CCCCC3)NC(=O)[C@H](CCN)NC(=O)[C@@H](CC(C)C)NC(=O)[C@H](CCCN)NC(=O)[C@H](Cc3ccc(O)cc3)NC(=O)[C@H](Cc3ccc(-c4ccccc4)cc3)NC(=O)[C@H](Cc3ccc(O)cc3)NC2=O)c1 [Compound 2520] ({CH2CO}-[Dap]Y(Carboxymethyl)D[Phe(3-Me)]Y[Bip]Y[Orn][dL][Dab][Cha]YRC[AEEA][Aun]-OH; thioether N-14) |
| 7.05 | CC(C)C[C@H]1NC(=O)[C@H](CCCN)NC(=O)[C@H](Cc2ccc(O)cc2)NC(=O)[C@H](Cc2ccc(-c3ccccc3)cc2)NC(=O)[C@H](Cc2ccc(O)cc2)NC(=O)[C@H](Cc2c[nH]c3ccccc23)NC(=O)[C@H](CC(=O)O)NC(=O)[C@H](Cc2ccc(OCC(=O)O)cc2)NC(=O)[C@H](Cc2ccc(OCC(=O)O)cc2)NC(=O)CSC[C@@H](C(=O)NCCOCCOCC(=O)NCCCCCCCCCCC(=O)O)NC(=O)[C@H](CCCN)NC(=O)[C@H](Cc2ccc(O)cc2)NC(=O)[C@H](CC2CCCCC2)NC(=O)[C@H](CCN)NC1=O [Compound 2521] ({CH2CO}-Y(Carboxymethyl)Y(Carboxymethyl)DWY[Bip]Y[Orn][dL][Dab][Cha]Y[Orn]C[AEEA][Aun]-OH; thioether N-14) |
| 6.47 | CC(C)C[C@H]1NC(=O)[C@H](CCCN)NC(=O)[C@H](Cc2ccc(O)cc2)NC(=O)[C@H](Cc2ccc(-c3ccccc3)cc2)NC(=O)[C@H](Cc2ccc(O)cc2)NC(=O)[C@H](Cc2c[nH]c3ccccc23)NC(=O)[C@H](CC(=O)O)NC(=O)[C@H](Cc2ccc(OCC(=O)O)cc2)NC(=O)[C@H](Cc2ccc(OCC(=O)O)cc2)NC(=O)CSC[C@@H](C(=O)NCCOCCOCC(=O)NCCCCCCCCCCC(=O)O)NC(=O)[C@H](CN)NC(=O)[C@H](Cc2ccc(O)cc2)NC(=O)[C@H](CC2CCCCC2)NC(=O)[C@H](CCN)NC1=O [Compound 2522] ({CH2CO}-Y(Carboxymethyl)Y(Carboxymethyl)DWY[Bip]Y[Orn][dL][Dab][Cha]Y[Dap]C[AEEA][Aun]-OH; thioether N-14) |
| 8.12 | CC(C)C[C@H]1NC(=O)[C@H](CCCN)NC(=O)[C@H](C(C)C)NC(=O)[C@H](Cc2ccc(-c3ccccc3)cc2)NC(=O)[C@H](C(C)C)NC(=O)[C@H](Cc2c[nH]c3ccccc23)NC(=O)[C@H](CC(=O)O)NC(=O)[C@H](Cc2ccc(C(=O)O)cc2)NC(=O)[C@H](Cc2ccc(OCC(=O)O)cc2)NC(=O)CSC[C@@H](C(=O)N[C@@H](CCCCN)C(=O)NCCOCCOCC(=O)NCCCCCCCCCCC(=O)O)NC(=O)[C@H](CCCCN)NC(=O)[C@H](C(C)C)NC(=O)[C@H](CC2CCCCC2)NC(=O)[C@H](CCN)NC1=O [Compound 2523] ({CH2CO}-Y(Carboxymethyl)[Phe(4-COOH)]DWV[Bip]V[Orn][dL][Dab][Cha]VKCK[AEEA][Aun]-OH; thioether N-14) |
| 7.78 | CC(C)C[C@H]1NC(=O)[C@H](CCCN)NC(=O)[C@H](C(C)C)NC(=O)[C@H](Cc2ccc(-c3ccccc3)cc2)NC(=O)[C@H](C(C)C)NC(=O)[C@H](Cc2c[nH]c3ccccc23)NC(=O)[C@H](CC(=O)O)NC(=O)[C@H](Cc2ccc(OCC(=O)O)cc2)NC(=O)[C@H](CN)NC(=O)CSC[C@@H](C(=O)N[C@@H](CCCCN)C(=O)NCCOCCOCC(=O)NCCCCCCCCCCC(=O)O)NC(=O)[C@H](CCCCN)NC(=O)[C@H](C(C)C)NC(=O)[C@H](CC2CCCCC2)NC(=O)[C@H](CCN)NC1=O [Compound 2525] ({CH2CO}-[Dap]Y(Carboxymethyl)DWV[Bip]V[Orn][dL][Dab][Cha]VKCK[AEEA][Aun]-OH; thioether N-14) |
| 8.14 | Cc1cccc(C[C@@H]2NC(=O)[C@H](CC(=O)O)NC(=O)[C@H](Cc3ccc(OCC(=O)O)cc3)NC(=O)[C@H](CN)NC(=O)CSC[C@@H](C(=O)N[C@@H](CCCCN)C(=O)NCCOCCOCC(=O)NCCCCCCCCCCC(=O)O)NC(=O)[C@H](CN)NC(=O)[C@H](C(C)C)NC(=O)[C@H](CC3CCCCC3)NC(=O)[C@H](CCN)NC(=O)[C@@H](CC(C)C)NC(=O)[C@H](CCCN)NC(=O)[C@H](C(C)C)NC(=O)[C@H](Cc3ccc(-c4ccccc4)cc3)NC(=O)[C@H](C(C)C)NC2=O)c1 [Compound 2526] ({CH2CO}-[Dap]Y(Carboxymethyl)D[Phe(3-Me)]V[Bip]V[Orn][dL][Dab][Cha]V[Dap]CK[AEEA][Aun]-OH; thioether N-14) |
| 8.17 | Cc1cccc(C[C@@H]2NC(=O)[C@H](CC(=O)O)NC(=O)[C@H](Cc3ccc(OCC(=O)O)cc3)NC(=O)[C@H](CN)NC(=O)CSC[C@@H](C(=O)N[C@@H](CCCCN)C(=O)NCCOCCOCC(=O)NCCCCCCCCCCC(=O)O)NC(=O)[C@H](CCCN)NC(=O)[C@H](C(C)C)NC(=O)[C@H](CC3CCCCC3)NC(=O)[C@H](CCN)NC(=O)[C@@H](CC(C)C)NC(=O)[C@H](CCCN)NC(=O)[C@H](C(C)C)NC(=O)[C@H](Cc3ccc(-c4ccccc4)cc3)NC(=O)[C@H](C(C)C)NC2=O)c1 [Compound 2527] ({CH2CO}-[Dap]Y(Carboxymethyl)D[Phe(3-Me)]V[Bip]V[Orn][dL][Dab][Cha]V[Orn]CK[AEEA][Aun]-OH; thioether N-14) |
